Results: ChEMBL document CHEMBL5512651, “Synthesis and biological evaluation of 4-imidazolidinone-containing compounds as potent inhibitors of the MDM2/p53 interaction” (Eur J Med Chem, 2024)
The source made the active and inactive calls. No cut-off for these calls is given here.

Key:
[1] = Antiproliferative activity against HEK293 cells incubated for 4 days by CCK8 assay; format: toxicity, cell-based; settings: human
[2] = target: Cellular tumor antigen p53 (Homo sapiens) (UniProt P04637); test: Activation of p53 pathway in human MOLM-13 cells assessed as increase in MDM2 level incubated for 24 hrs by Western blot analysis; format: cell-based; settings: filed as activator, dose 0.038-0.6 µM
[3] = target: Cellular tumor antigen p53 (Homo sapiens) (UniProt P04637); test: Activation of p53 pathway in human MOLM-13 cells assessed as increase in BAX mRNA level incubated for 24 hrs by qPCR analysis; format: cell-based; settings: filed as activator, dose 0.038-0.6 µM
[4] = target: Cellular tumor antigen p53 (Homo sapiens) (UniProt P04637); test: Activation of p53 pathway in human A549 cells assessed as increase in p53 level at 1 uM incubated for 24 hrs by Western blot analysis; format: cell-based; settings: filed as activator
[5] = target: Cellular tumor antigen p53 (Homo sapiens) (UniProt P04637); test: Activation of p53 pathway in human HeLa cells assessed as increase in p53 level at 1 uM incubated for 24 hrs by Western blot analysis; format: cell-based
[6] = Selectivity index, ratio of IC50 for HEK293 cells to IC50 for human A549 cells; format: toxicity; settings: HEK293 cells versus A549 cells, read-out: Ratio IC50
[7] = test system: MOLM-13; test: Induction of apoptosis in human MOLM-13 cells assessed as necrotic cells at 8.1 uM incubated for 24 hrs by Annexin V-FITC/PI staining based flow cytometry (reference value: 0.020 %); format: functional
[8] = test system: MOLM-13; test: Induction of apoptosis in human MOLM-13 cells assessed as late apoptotic cells at 0.9 uM incubated for 24 hrs by Annexin V-FITC/PI staining based flow cytometry (reference value: 0.457 %); format: functional
[9] = test system: A549; test: cells; settings: Homo sapiens, A549, 96 h
[10] = test system: MOLM-13; test: Induction of apoptosis in human MOLM-13 cells assessed as viable cells at 0.9 uM incubated for 24 hrs by Annexin V-FITC/PI staining based flow cytometry (reference value: 95.1 %); format: functional; settings: read-out: Activity
[11] = test system: MOLM-13; test: Induction of apoptosis in human MOLM-13 cells assessed as necrotic cells at 24.3 uM incubated for 24 hrs by Annexin V-FITC/PI staining based flow cytometry (reference value: 0.020 %); format: functional
[12] = target: Cellular tumor antigen p53 (Homo sapiens) (UniProt P04637); test: Activation of p53 pathway in human A549 cells assessed as increase in p21 level at 1 uM incubated for 24 hrs by Western blot analysis; format: cell-based; settings: filed as activator
[13] = Selectivity index, ratio of IC50 for HEK293 cells to IC50 for human SW480 cells
[14] = test system: MOLM-13; test: Induction of apoptosis in human MOLM-13 cells assessed as increase in caspase-3 level at 0.15 to 0.6 uM incubated for 24 hrs by Western blot analysis; format: functional, cell-based; settings: dose 0.15-0.6 µM
[15] = target: Cellular tumor antigen p53 (Homo sapiens) (UniProt P04637); test: Activation of p53 pathway in human HCT-116 cells assessed as increase in MDM2 level at 1 uM incubated for 24 hrs by Western blot analysis; format: cell-based; settings: filed as activator
[16] = test system: MOLM-13; test: Induction of apoptosis in human MOLM-13 cells assessed as early apoptotic cells at 24.3 uM incubated for 24 hrs by Annexin V-FITC/PI staining based flow cytometry (reference value: 4.44 %); format: functional
[17] = target: Cellular tumor antigen p53 (Homo sapiens) (UniProt P04637); test: Activation of p53 pathway in human A549 cells assessed as increase in MDM2 level at 1 uM incubated for 24 hrs by Western blot analysis; format: cell-based; settings: filed as activator

Chain of Cellular tumor antigen p53 (Homo sapiens) (P04637 whole entry, looked up): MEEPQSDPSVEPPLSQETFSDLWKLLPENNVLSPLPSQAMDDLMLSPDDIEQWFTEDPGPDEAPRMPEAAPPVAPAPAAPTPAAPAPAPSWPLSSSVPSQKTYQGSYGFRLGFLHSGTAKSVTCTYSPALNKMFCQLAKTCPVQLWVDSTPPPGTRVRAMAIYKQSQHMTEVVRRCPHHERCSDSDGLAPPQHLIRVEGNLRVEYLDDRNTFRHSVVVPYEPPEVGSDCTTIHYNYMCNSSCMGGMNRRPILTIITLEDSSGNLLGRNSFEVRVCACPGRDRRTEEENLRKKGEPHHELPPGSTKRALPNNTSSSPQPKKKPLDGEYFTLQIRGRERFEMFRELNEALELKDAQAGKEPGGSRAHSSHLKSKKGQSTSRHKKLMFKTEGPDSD

COc1cc(C(=O)O)ccc1N1CN2[C@@H](CC(C)(C)C)[C@@]3(CNc4cc(Cl)ccc43)[C@@H](c3cccc(Cl)c3)[C@@H]2C1=O
IC50 at 4 days [1]: 9.65 µM | Activity [2]: Dose-Dependent Effect | Activity [3]: Dose-Dependent Effect | Activity [4]: Active | Activity [5]: inactive | selectivity ratio [6]: 52 | Activity [7]: 0.176% | Activity [8]: 1.06% | IC50 [9]: 0.184 µM | viability at 0.9 µM [10]: 50% | Activity [11]: 0.047% | Activity [12]: Active | Ratio IC50 [13]: 1.6 | Activity [14]: Active | Activity [15]: Active | Activity [16]: 89.4% | Activity [17]: Active
